Data from patent US9113629B2, “4-amino-6-(4-substituted-phenyl)-picolinates and 6-amino-2-(4-substituted-phenyl)-pyrimidine-4-carboxylates and their use as herbicides” (DOW AGROSCIENCES LLC, priority 2013, dated 2015).
Like-named read-outs stand apart in the source and are kept apart here.

Assays:
[1] = test system: Key Broadleaf Weed and Crop Species; assay: Post-emergent Test II herbicidal activity (Table 5); format: in vivo; conditions: post-emergence, 336 h, 14 days after application; for pest or weed control at 70 g/ha: application rate 70 g ai/ha; for pest or weed control at 140 g/ha: application rate 140 g ai/ha
Summary of the method: (§1)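 Post-emergence foliar spray, 187 L/ha, track sprayer at 43 cm above canopy. Carrier: acetone/water/IPA/DMSO/Atplus 411F/Triton X-155. Plants at 1st–2nd true leaf; subirrigated afterwards; % injury scored visually at 14 d.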

[2] = test system: Key Grass and Sedge Weeds as well as Grass Crops; assay: Post-emergent Test II herbicidal activity (Table 6); format: in vivo; conditions: post-emergence, 336 h; for pest or weed control at 70 g/ha: 70 g ai/ha; for pest or weed control at 140 g/ha: 140 g ai/ha
Summary of the method: as §1

[3] = ABUTH: velvetleaf (Abutilon theophrasti), read-out: Visual Growth Reduction (%) 14 Days After Application, ABUTH
[4] = AMARE: redroot pigweed (Amaranthus retroflexus), read-out: Visual Growth Reduction (%) 14 Days After Application, AMARE
[5] = BRSNN: oilseed-rape, canola (Brassica napus), read-out: Visual Growth Reduction (%) 14 Days After Application, BRSNN
[6] = CHEAL: lambsquarters (Chenopodium album), read-out: Visual Growth Reduction (%) 14 Days After Application, CHEAL
[7] = EPHHL: wild poinsettia (Euphorbia heterophylla), read-out: Visual Growth Reduction (%) 14 Days After Application, EPHHL
[8] = HELAN: sunflower (Helianthus annuus), read-out: Visual Growth Reduction (%) 14 Days After Application, HELAN
[9] = VIOTR: wild pansy (Viola tricolor), read-out: Visual Growth Reduction (%) 14 Days After Application, VIOTR
[10] = CYPES: yellow nutsedge (Cyperus esculentus), read-out: Visual Growth Reduction (%) 14 Days After Application, CYPES
[11] = DIGSA: crabgrass (Digitaria sanguinalis), read-out: Visual Growth Reduction (%) 14 Days After Application, DIGSA
[12] = ECHCG: barnyardgrass (Echinochloa crus-galli), read-out: Visual Growth Reduction (%) 14 Days After Application, ECHCG
[13] = ORYSA: rice (Oryza sativa), crop, read-out: Visual Growth Reduction (%) 14 Days After Application, ORYSA
[14] = SETFA: giant foxtail (Setaria faberi), read-out: Visual Growth Reduction (%) 14 Days After Application, SETFA
[15] = SORVU: grain sorghum (Sorghum vulgare), read-out: Visual Growth Reduction (%) 14 Days After Application, SORVU
[16] = TRZSS (wheat, Triticum aestivum), crop, read-out: Visual Growth Reduction (%) 14 Days After Application, TRZSS
[17] = ZEAMX: maize, corn (Zea mays), crop, read-out: Visual Growth Reduction (%) 14 Days After Application, ZEAMX

SMILES: Nc1c(F)c(-c2ccc(Cl)c(F)c2)nc(C(=O)O)c1Cl [Compound 217]
- pest or weed control at 70 g/ha [1, 3]: 95 to 100%
- pest or weed control at 140 g/ha [1, 3]: 95 to 100%
- pest or weed control at 70 g/ha [1, 4]: 95 to 100%
- pest or weed control at 140 g/ha [1, 4]: 95 to 100%
- pest or weed control at 70 g/ha [1, 5]: 85 to 94%
- pest or weed control at 140 g/ha [1, 5]: 95 to 100%
- pest or weed control at 70 g/ha [1, 6]: 95 to 100%
- pest or weed control at 140 g/ha [1, 6]: 95 to 100%
- pest or weed control at 70 g/ha [1, 7]: 95 to 100%
- pest or weed control at 140 g/ha [1, 7]: 95 to 100%
- pest or weed control at 70 g/ha [1, 8]: 95 to 100%
- pest or weed control at 140 g/ha [1, 8]: 95 to 100%
- pest or weed control at 70 g/ha [1, 9]: 95 to 100%
- pest or weed control at 140 g/ha [1, 9]: 95 to 100%
- pest or weed control at 70 g/ha [2, 10]: 85 to 94%
- pest or weed control at 140 g/ha [2, 10]: 85 to 94%
- pest or weed control at 70 g/ha [2, 11]: 85 to 94%
- pest or weed control at 140 g/ha [2, 11]: 85 to 94%
- pest or weed control at 70 g/ha [2, 12]: 95 to 100%
- pest or weed control at 140 g/ha [2, 12]: 95 to 100%
- pest or weed control at 70 g/ha [2, 13]: 60 to 74%
- pest or weed control at 140 g/ha [2, 13]: 75 to 84%
- pest or weed control at 70 g/ha [2, 14]: 95 to 100%
- pest or weed control at 140 g/ha [2, 14]: 95 to 100%
- pest or weed control at 70 g/ha [2, 15]: 85 to 94%
- pest or weed control at 140 g/ha [2, 15]: 85 to 94%
- pest or weed control at 70 g/ha [2, 16]: 75 to 84%
- pest or weed control at 140 g/ha [2, 16]: 75 to 84%
- pest or weed control at 70 g/ha [2, 17]: 85 to 94%
- pest or weed control at 140 g/ha [2, 17]: 95 to 100%
- melting point: 159 to 161 °C
